Test results from US20250340565A1, “CD73 INHIBITOR COMPOUNDS” (AdoRx Therapeutics Limited, priority 2022, published 2025).
Where a name gives a salt, the structure may show the parent alone.

What was measured:
[1] = target: CD73 activity in U138-MG cells (Homo sapiens (Human), UniProt P21589); experiment: U138-MG inhibition assay (inorganic phosphate from AMP, PiColorLock Gold); format: cell-based; settings: 100 μM AMP, 30 min pre-incubation, 1 hour at 37° C.
Description: U138-MG cells from ATCC are cultured in DMEM (Gibco 31966) with 10% FBS. Cells are seeded into 96-well culture plates (5,000 cell/well) in 100 μL of media for 24 hr. Cells are washed twice with 200 μL of assay buffer (20 mM HEPES, pH 7.4; 137 mM NaCl; 5.4 mM KCl; 1.3 mM CaCl2; 4.2 mM NaHCO3; 1 mg/mL glucose) to remove residual inorganic phosphate. CD73 inhibitor is added to each well in 100 μl volume and preincubated for 30 mins at 37° C. An equal volume of AMP substrate (Sigma A1572) is added to each well at a final concentration of 100 μM and incubated at 37° C. for 1 hour. Control wells containing cells but lacking added AMP, define the assay signal equivalent to 100% inhibition of CD73 activity. Supernatant is removed for measurement of inorganic phosphate using the PiColorLock Gold kit (Abcam, ab 270004).
The IC50 values of test compounds are determined as the inflection point of the sigmoidal concentration response curve.

[2] = target: human (h)CD73 (amino acids Trp27-Lys547) (Homo sapiens, UniProt P21589); experiment: CD73 inhibition assay (Malachite Green phosphate detection); format: biochemical; settings: 250 pM hCD73, 12.5 μM AMP, 20 min pre-incubation, absorbance 620 nm
Description: Compound inhibition of human (h)CD73 (amino acids Trp27-Lys547, R&D Systems 5795-EN-500) enzymatic activity was tested via the Malachite Green Phosphate Detection Kit (R&D DY996). Experiments were performed in 20 μL Tris buffer (25 mM Tris pH 7.5, 5 mM MgCl2, 0.002% Tween20), with 250 pM of hCD73. Test compounds of interest were prepared in a threefold serial dilution in DMSO and added to the assay to give the appropriate final concentration, with the assay DMSO concentration being 1%. Compounds were pre-incubated for 20 minutes with hCD73 in a 384 well clear plate (Greiner 781101), followed by the addition of adenosine monophosphate (AMP) to 12.5 μM. The enzymatic reaction was carried out for 20 min at room temperature. 5 μL of Malachite kit reagent A was added to stop the reaction (contains 3M H2SO4) and after 10 min, 5 μL of Malachite kit reagent B was added (Malachite Green). After 30 min, absorbance at 620 nm was read on a BMG Pherastar FSX.
Data were normalised to measurements in the absence of competing compound (0% inhibition) and in the presence of 10 μM control compound (100% inhibition).

CD73 in whole blood = CD73 in whole blood (Homo sapiens (Human), UniProt P21589); experiment: Whole blood AMP Glo assay; format: cell-based; settings: whole blood of healthy volunteers, 10 μM AMP, 30 min pre-incubation, 15 min at 37° C., levamisole 1.5 mM
Sequence of CD73 in whole blood (P21589 27-574): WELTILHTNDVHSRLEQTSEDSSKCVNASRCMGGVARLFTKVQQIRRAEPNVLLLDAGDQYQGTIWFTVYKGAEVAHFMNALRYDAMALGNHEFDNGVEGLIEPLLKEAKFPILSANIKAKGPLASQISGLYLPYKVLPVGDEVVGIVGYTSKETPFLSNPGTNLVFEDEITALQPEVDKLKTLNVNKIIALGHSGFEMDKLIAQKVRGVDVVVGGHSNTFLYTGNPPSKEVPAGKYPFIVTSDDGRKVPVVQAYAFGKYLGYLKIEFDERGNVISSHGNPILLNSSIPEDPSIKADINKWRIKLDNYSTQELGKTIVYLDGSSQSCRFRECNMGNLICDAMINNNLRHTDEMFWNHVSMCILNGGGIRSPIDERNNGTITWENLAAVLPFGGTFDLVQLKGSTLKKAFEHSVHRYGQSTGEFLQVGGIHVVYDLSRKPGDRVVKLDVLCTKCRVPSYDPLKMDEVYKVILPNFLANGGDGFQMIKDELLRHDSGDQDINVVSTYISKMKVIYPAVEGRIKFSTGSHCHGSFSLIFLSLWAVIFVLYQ
Description: Blood is drawn from healthy volunteers by venepuncture and anti-coagulated with Lithium Heparin (10 IU/mi). 150 μl of blood is added to U-bottom polypropylene 96-well assay plates pre-filled with 20 μl of compound dilutions prepared in RPMI also containing the Tissue Non-specific Alkaline Phosphatase inhibitor Levamisole (final assay concentration 1.5 mM). Control wells to define uninhibited CD73 contain DMSO in place of compound. Control wells to define complete stabilization of AMP attributable to CD73 contain LY3475070 (CAS: 2375815-63-5) at 30 μM final assay concentration.
Compounds are pre-incubated with whole blood at 37° C. for 30 minutes. Following this, AMP is added in a 30 μl volume for a final assay concentration of 10 μM, mixed, and the plates are incubated for 15 minutes at 37° C. Final DMSO concentration/well is 0.6% and final volume/well is 200 μL. After incubating with AMP, the plates are placed on ice and then centrifuged at 2000 g for 10 minutes at 4° C. Plasma is removed and then diluted 1:10 with pre-chilled HBSS (Ca2+& Mg2+free) and kept on ice.
The stabilized AMP concentration in diluted plasma is measured using AMP-Glo kit (Promega), in parallel with a standard curve of known AMP concentrations, with a final volume of 40 μl in white flat bottom half-well 96-well plates (Corning). Signal is measured by Luminescence. The IC50 values of test compounds are determined as the inflection point of the sigmoidal concentration response curve.

Sequence of CD73 activity in U138-MG cells (P21589 27-574): as above

| IC50 [1] | IC50 [2] | IC50 (CD73 in whole blood) | Structure (SMILES) |
| --- | --- | --- | --- |
| 2340 nM | 715 nM | 8750 nM | O=c1[nH]cc(-c2cc3c(N4CCC(CO)C4)ncnc3s2)c(=O)[nH]1 (stereo not drawn) [Example 1, 5-[4-[3-(Hydroxymethyl)pyrrolidin-1-yl]thieno[2,3-d]pyrimidin-6-yl]-1H-pyrimidine-2,4-dione] |
| 2310 nM | 677 nM | 8760 nM | O=c1[nH]cc(-c2cc3c(N4CCC(CCO)C4)ncnc3s2)c(=O)[nH]1 (stereo not drawn) [Example 1.1, 5-[4-[3-(2-Hydroxyethyl)pyrrolidin-1-yl]thieno[2,3-d]pyrimidin-6-yl]-1H-pyrimidine-2,4-dione] |
| 717 nM | 489 nM | 3160 nM | O=c1[nH]cc(-c2cc3c(N4CCC(OCCO)C4)ncnc3s2)c(=O)[nH]1 (stereo not drawn) [Example 1.3, 5-[4-[3-(2-Hydroxyethoxy)pyrrolidin-1-yl]thieno[2,3-d]pyrimidin-6-yl]-1H-pyrimidine-2,4-dione] |
| 46.1 nM | 11.1 nM | 47 nM | O=c1[nH]cc(-c2cc3c(N4CCC(OCCN5CCCCC5)C4)ncnc3s2)c(=O)[nH]1 (stereo not drawn) [Example 2, 5-[4-[3-[2-(1-Piperidyl)ethoxy]pyrrolidin-1-yl]thieno[2,3-d]pyrimidin-6-yl]-1H-pyrimidine-2,4-dione] |
| 1120 nM | 401 nM | 6990 nM | CC1(C)CCN(c2ncnc3sc(-c4c[nH]c(=O)[nH]c4=O)cc23)C1 [Example 2.1, 5-[4-(3,3-Dimethylpyrrolidin-1-yl)thieno[2,3-d]pyrimidin-6-yl]-1H-pyrimidine-2,4-dione] |
| 588 nM | 59.6 nM | 2220 nM | N#Cc1ccc(OC2CCN(c3ncnc4sc(-c5c[nH]c(=O)[nH]c5=O)cc34)C2)nc1 (stereo not drawn) [Example 3, 6-[1-[6-(2,4-Dioxo-1H-pyrimidin-5-yl)thieno[2,3-d]pyrimidin-4-yl]pyrrolidin-3-yl]oxypyridine-3-carbonitrile] |
| 734 nM | 87.3 nM | 4010 nM | CC1(C)CN(c2ncnc3sc(-c4c[nH]c(=O)[nH]c4=O)cc23)CC1(F)F [Example 4, 5-[4-(3,3-Difluoro-4,4-dimethyl-pyrrolidin-1-yl)thieno[2,3-d]pyrimidin-6-yl]-1H-pyrimidine-2,4-dione] |
| 428 nM | 96 nM | 782 nM | O=c1[nH]cc(-c2cc3c(N4CCC(OCc5ccccn5)C4)ncnc3s2)c(=O)[nH]1 (stereo not drawn) [Example 4.1, 5-[4-[3-(2-pyridylmethoxy)pyrrolidine-1-yl]thieno[2,3-d]pyrimidin-6-yl]-1H-pyrimidine-2,4-dione formate salt] |
| 498 nM | 269 nM | 516 nM | CN1CCOC(COC2CN(c3ncnc4sc(-c5c[nH]c(=O)[nH]c5=O)cc34)CC2(F)F)C1 (stereo not drawn) [Example 4.3, 5-[4-[3,3-Difluoro-4-[(4-methylmorpholin-2-yl)methoxy]pyrrolidine-1-yl]thieno[2,3-d]pyrimidin-6-yl]-1H-pyrimidine-2,4-dione formate salt] |
| 7 nM | – | 20 nM | COC1CN(c2ncc(Cl)n3nc(-c4c[nH]c(=O)[nH]c4=O)cc23)CC1(F)F (stereo not drawn) [Example 25.14, 5-[7-Chloro-4-(3,3-difluoro-4-methoxy-pyrrolidin-1-yl)pyrazolo[1,5-a]pyrazin-2-yl]-1H-pyrimidine-2,4-dione] |
| 11 nM | – | 78 nM | CC1(C)CCN(c2ncc(Cl)n3nc(-c4c[nH]c(=O)[nH]c4=O)cc23)C1 [Example 25.16, 5-[7-chloro-4-(3,3-dimethylpyrrolidin-1-yl)pyrazolo[1,5-a]pyrazin-2-yl]-1H-pyrimidine-2,4-dione] |
| 39 nM | – | 450 nM | CC1(C)CCN(c2ncc(F)n3nc(-c4c[nH]c(=O)[nH]c4=O)cc23)C1 [Example 25.17, 5-[4-(3,3-dimethylpyrrolidin-1-yl)-7-fluoro-pyrazolo[1,5-a]pyrazin-2-yl]-1H-pyrimidine-2,4-dione] |
